Like-named read-outs stand apart in the source and are kept apart here.
T1: Tpx WT (Trypanosoma brucei brucei, UniProt O77404)
T1 construct: with residue G1 and end with N144; GAMG (TEV-cleavage scar that replaces Met1); Trx-His6 (thioredoxin fusion with His6 tag) (N, cleaved yes); made in house; host or cells: E. coli BL21-Gold(DE3)
T1 sequence (O77404 with tags, fused parts or gaps limits assumed): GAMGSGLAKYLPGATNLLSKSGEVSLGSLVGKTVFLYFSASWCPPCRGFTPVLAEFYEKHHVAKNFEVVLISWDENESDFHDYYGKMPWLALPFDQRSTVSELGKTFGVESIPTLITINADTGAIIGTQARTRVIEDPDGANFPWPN

T2: Tryparedoxin (Trypanosoma brucei, UniProt O77404)
T2 chain: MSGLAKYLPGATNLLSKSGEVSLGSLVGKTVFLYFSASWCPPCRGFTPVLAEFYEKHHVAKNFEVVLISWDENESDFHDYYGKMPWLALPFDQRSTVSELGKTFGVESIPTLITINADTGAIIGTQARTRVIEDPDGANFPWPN

B1: Tryparedoxin (protein)
chain: MSGLAKYLPGATNLLSKSGEVSLGSLVGKTVFLYFSASWCPPCRGFTPVLAEFYEKHHVAKNFEVVLISWDENESDFHDYYGKMPWLALPFDQRSTVSELGKTFGVESIPTLITINADTGAIIGTQARTRVIEDPDGANFPWPN
modifications: meta-CFT covalently bound at C40
B2: Tryparedoxin (protein)
chain: MSGLAKYLPGATNLLSKSGEVSLGSLVGKTVFLYFSASWCPPCRGFTPVLAEFYEKHHVAKNFEVVLISWDENESDFHDYYGKMPWLALPFDQRSTVSELGKTFGVESIPTLITINADTGAIIGTQARTRVIEDPDGANFPWPN
modifications: CtFT covalently bound at C40

What was measured:
Tpx [1] = test system: T3, Tpx; test: SEC-MALS of Tpx/inhibitor complexes; assay type: binding, Trypanosoma brucei; conditions: for SEC-MALS Mw of Tpx/inhibitor complex: 100 µM analyte, value ± measurement error
T3 construct: with residue G1 and end with N144; GAMG (TEV-cleavage scar that replaces Met1); Trx-His6 (thioredoxin fusion with His6 tag) (N, cleaved yes); made in house; host or cells: E. coli BL21-Gold(DE3)
Description: Size Exclusion Chromatography Coupled To Multi-Angle Light Scattering (SEC-MALS) To determine the oligomeric state of Tpx/inhibitor complexes by SEC-MALS, 100 µM of purified Tpx/inhibitor complexes were applied to a SEC column (Superdex75 10/300, GE Healthcare) in Tpx buffer (25 mM NaPi pH 7.5, 150 mM NaCl) at a flow rate of 0.5 ml/min at room temperature. The molecular weights of the eluting proteins were measured using a Dawn Heleos 8+ light scattering detector and an Optilab T-rEX refractive index detector (Wyatt Technologies). Data were analyzed with […]

HEK293 cells = test: HEK293 cell survival assay (resazurin); assay type: cell-based; conditions: Homo sapiens; HEK293, 24 h incubation
Description: Trypanosome and HEK293 Cell Survival Assays […]
(§1) 1-5 in human embryonic kidney (HEK293) was determined with a resazurin assay, which is based on the reduction of resazurin to fluorescent resorufin by living cells.6 HEK293 cells were maintained in DMEM high glucose supplemented with 10% FBS, 1% penicillin/streptomycin and 1% L-glutamine at 37 °C and 5% CO2. For the toxicity screen, 40000 cells per well were seeded in a 48 well plate (400 µL medium/well) and incubated at 37 °C for 24 hours before treatment with inhibitors 1-5. Cells were treated with 0.1 µM, 0.3 µM, 0.7 µM, 1 µM, 3 µM, 7 µM, 10 µM, 30 µM, 70 µM and 100 µM of the respective inhibitor, DMSO treatment served as negative control. The overall DMSO concentration was kept at 1 vol.% DMSO per well. After 24 hours of treatment, the medium was exchanged with a medium/resazurin mixture (0.015 mg/mL resazurin per well) and the cells were incubated for 3 h at 37 °C before transferring 100 µl medium from each well into a black opaque-walled 96-well plate. Fluorescence was directly measured using a CLARIOstar Plus reader (BMG Labtech GmbH, Ortenberg, Germany) with a 545-20 nm excitation / 600-40 nm emission filter. Each experiment was done in biological quadruplets and cell viability was analyzed in comparison to the DMSO control by plotting relative fluorescence units (RFU) against inhibitor concentration (Prism, Graphpad). A fifty percent decrease in relative fluorescence indicated the compound concentration where half of the HEK293 cells had died, which […]
(§2) In Vitro Tpx Activity Assay and Inactivation Kinetics
(§3) To reconstitute the peroxide clearance cascade (PCC), its components (at final concentrations of 360 µM NADPH, 0.1 U/mL TR, 110 µM TS2, 5 µM Tpx, 180 nM Px, 100 µM H2O2) were mixed in a total volume of 200 µL in a 10 mm quartz cuvette. First, 15 µL NADPH (4.8 mM in TR buffer (40 mM HEPES pH 7.5, 1 mM Na-EDTA), 10 µL TR (2 U/mL in TR buffer), 10 µL TS2 (2.2 mM in sterile filtered, deionized

[2] = test system: T. brucei brucei 449 Lister 427 parasites; test: Trypanosome cell survival assay (ATPlite luminescence); assay type: cell-based, Trypanosoma brucei brucei; conditions: for Selectivity index (24 h), EC50 HEK293 cells divided by EC50 T. brucei: HEK293 vs T. brucei brucei 449, 24 h; for EC50: Trypanosoma brucei
Description: Trypanosome and HEK293 Cell Survival Assays
Half maximal effective concentration (EC50) values of compounds 1- 5 against T. brucei brucei 449 Lister 427 parasites were determined with an ATPlite Luminescence assay as described previously.4,5 The EC50 was defined as the compound concentration at which a fifty percent decrease in relative […]
as §1, §2, §3

Tpx [3] = test system: T3, Tpx; test: In vitro Tpx activity assay: reconstituted peroxide clearance cascade, NADPH consumption followed photometrically; assay type: biochemical, Trypanosoma brucei; conditions: for second-order rate constant k2nd of irreversible Tpx inhibition: 5 µM Tpx, 25 °C, slope of kobs vs inhibitor concentration; for speed of Tpx inactivation: Tpx-equimolar concentrations (5 µM)
Tpx WT = target: T1, Tpx WT; test: Dilution ITC of covalent Tpx/inhibitor complexes (dimer dissociation); assay type: binding; conditions: according to dimer KD
Description: Isothermal Titration Calorimetry (ITC)
Dissociation coefficients (K D) of dimeric Tpx/inhibitor complexes were determined via dilution ITC following our previously established protocol. 4 Purified complexes in Tpx buffer were titrated to Tpx buffer, and the heat signals of each injection was recorded. To observe dimer dissociation, measurements were conducted with 78 µM (Tpx/para-CFT), 122 µM (Tpx/meta-CFT), 277 µM (Tpx/ortho-CFT), 821 µM (Tpx/CtFT), and 176 µM (Tpx/CPT). A MicroCal PEAQ-ITC Automated […]
1, 3 and 5. After the initial wait time of 2 min, 19 serial injections of 2 μL with a spacing of 3 min where performed. The reference power was set to 11 μcal sec-1 and stirring speed to 750 rpm. A MicroCal PEAQ-ITC (Malvern Panalytical) with the same experimental setup was used to determine the KD value of covalent Tpx WT complexes with meta-CFT (2, 10 injections), and CtFT (4, 20 injections). Each titration was performed in a technical triplicate, and controls included water to water and unmodified Tpx to buffer titrations. Transferability between instruments was checked by repeating the Tpx/para -CFT […]
titration. […]

Tryparedoxin = target: T2, Tryparedoxin; test: dilution ITC
[4] = bloodstream form T. brucei brucei 449, 24 h incubation, read-out: EC50 (24 h)
[5] = bloodstream form T. brucei brucei 449, 48 h incubation, read-out: EC50 (48 h)

Row | Molecule | SEC-MALS Mw of Tpx/inhibitor complex (Tpx [1]) | EC50 (HEK293 cells) | Selectivity index (24 h), EC50 HEK293 cells divided by EC50 T. brucei [2] | EC50 [2, 4] | EC50 [2, 5] | oligomeric state of inhibitor-bound Tpx by SEC-MALS (Tpx [1]; 100 µM analyte concentration) | second-order rate constant k2nd of irreversible Tpx inhibition (Tpx [3]) | speed of Tpx inactivation (Tpx [3]) | portion of Tpx WT/inhibitor complex dimeric (Tpx WT; 750 µM analyte) | portion of Tpx WT/inhibitor complex dimeric (Tpx WT; 100 µM analyte) | Kd (Tryparedoxin)
1 | O=c1[nH]c(CCl)nc2scc(-c3ccccc3)c12 [CPT, 2-(chloromethyl)-5-phenylthieno[2,3-d]pyrimidin-4(3H)-one] | 19.5 ± 0.6 kDa | 4900 ± 600 nM | 8.2 ± 4.2 | 600 ± 300 nM | 1400 ± 400 nM |  |  |  |  |  | 
2 | O=c1[nH]c(CCl)nc2scc(-c3ccc(C(F)(F)F)cc3)c12 [CtFT, 2-(chloromethyl)-5-(4-(trifluoromethyl)phenyl)thieno[2,3-d]pyrimidin-4(3H)-one] | 16.6 ± 0.7 kDa | 3900 ± 300 nM | 1.8 ± 0.5 | 2200 ± 600 nM | 2500 ± 600 nM | remained monomeric | 1870 ± 17 M⁻¹ s⁻¹ | fastest |  |  | 
3 | O=c1[nH]c(CCl)nc2scc(-c3cccc(F)c3)c12 [meta-CFT, 2-(chloromethyl)-5-(3-fluorophenyl)thieno[2,3-d]pyrimidin-4(3H)-one] | 23.6 ± 0.9 kDa | 6500 ± 500 nM | 5.0 ± 1.6 | 1300 ± 400 nM | 1100 ± 500 nM |  | 933 ± 17 M⁻¹ s⁻¹ | slowest |  |  | 
4 | O=c1[nH]c(CCl)nc2scc(-c3ccccc3F)c12 [ortho-CFT, 2-(chloromethyl)-5-(2-fluorophenyl)thieno[2,3-d]-pyrimidin-4(3H)-one] | 17.5 ± 0.9 kDa | 5000 ± 600 nM | 5.0 ± 1.6 | 1000 ± 300 nM | 800 ± 300 nM |  |  | fastest | 87% |  | 
5 | O=c1[nH]c(CCl)nc2scc(-c3ccc(F)cc3)c12 [para-CFT, 2-(chloromethyl)-5-(4-fluorophenyl)-thieno[2,3-d]pyrimidin-4(3H)-one] | 21.3 ± 1.1 kDa | 3900 ± 400 nM | 3.0 ± 0.8 | 1300 ± 300 nM | 1500 ± 300 nM |  |  |  |  | 85% | 
6 | B1 |  |  |  |  |  |  |  |  |  |  | 3700 nM
7 | B2 |  |  |  |  |  |  |  |  |  |  | 410000 nM

From article PMC13625682, “Inhibitor fluorination pattern modulates protein surface dynamics and chemically induced dimerization” (Chemical Science, 2026)
